Test system: RBL-1 cell
Conditions: glass chip treated with base then H2O (FIG. 31) and conventional patch glass capillary (FIG. 30), addition of barium chloride
Protocol: After baking, the glass chips were stored in de-ionized H2O for many hours (ranging from less than 1 hour to over 2 days). […] The whole cell recording on a RBL-1 cell on this chip for a ramping voltage protocol, in which the voltage applied across the cell membrane linearly varied with time from −120 mV to 60 mV at a rate of 120 mV/second, is shown in FIG. 29. […] With or without baking the chips, the glass chips were first treated with HNO3 (6 M) for 4 or 5 hours, then treated with NaOH (5M) for 30-45 minutes, and were then transferred into de-ionized H2O (pH=6-7) for storage/treatment. […] A ramping voltage protocol was used for the recording in FIG. 32, in which the voltage applied across the cell membrane linearly varied with time from −120 mV to 60 mV at a rate of 120 mV/second. […] A ramping voltage protocol was used for the recording in FIG. 33, in which the voltage applied across the cell membrane linearly varied with time from −120 mV to 60 mV at a rate of 120 mV/second. • (4) Laser polishing followed by Acid treatment and then by base treatment.

For `[Ba+2].[Cl-].[Cl-]` [barium chloride], the whole-cell current was “inhibition of the whole-cell current”.

— US7723029B2, “Biochips including ion transport detecting structures and methods of use” (Aviva Biosciences Corporation, priority 2002, dated 2010)
